Measurements from ChEMBL document CHEMBL1201862, “PubChem BioAssay data set” (2004).
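All cell lines were grown in 96-well plates and treated with compound for 48 hours. Here, GI50 denotes the concentration required for 50% inhibition of growth.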 Activity calls are given as the source filed them. Cut-off read from the data, not from the text of the source: active = GI50 up to about 1.1 µM and inactive = higher.

Legend:
Test in all cases: NCI anticancer screen, dose series, 48 h
RXF 631 = system: RXF 631
LXFL 529 = system: LXFL 529
OVCAR-3 = system: OVCAR-3
OVCAR-5 = system: OVCAR-5
HOP-62 = system: HOP-62
RXF 393 = system: RXF 393
HT-29 = system: HT-29
IGROV-1 = system: IGROV-1
TK-10 = system: TK-10
ACHN = system: ACHN
DMS-273 = system: DMS-273
DLD-1 = system: DLD-1
EKVX = system: EKVX
MOLT-4 = system: MOLT-4
NCI-H226 = system: NCI-H226
COLO 205 = system: COLO 205
SF-295 = system: SF-295
HOP-92 = system: HOP-92
SF-268 = system: SF-268
NCI-H460 = system: NCI-H460
HCT-116 = system: HCT-116
LOX IMVI = system: LOX IMVI
A549 = system: A549
Malme-3M = system: Malme-3M
K562 = system: K562
SF-539 = system: SF-539
OVCAR-8 = system: OVCAR-8
NCI-H23 = system: NCI-H23
HL-60 = system: HL-60
SK-OV-3 = system: SK-OV-3
SK-MEL-5 = system: SK-MEL-5
UACC-62 = system: UACC-62
NCI-H522 = system: NCI-H522
SNB-75 = system: SNB-75
HCC 2998 = system: HCC 2998
SW-620 = system: SW-620
SK-MEL-2 = system: SK-MEL-2
M14 = system: M14
DMS-114 = system: DMS-114
UO-31 = system: UO-31
KM12 = system: KM12
SNB-78 = system: SNB-78
M19-MEL = system: M19-MEL
UACC-257 = system: UACC-257
U-251 = system: U-251
786-0 = system: 786-0
RPMI-8226 = system: RPMI-8226
SK-MEL-28 = system: SK-MEL-28
KM-20L2 = system: KM-20L2
CCRF-CEM = system: CCRF-CEM
XF498 = system: XF498
CAKI-1 = system: CAKI-1
SN12C = system: SN12C
OVCAR-4 = system: OVCAR-4
A498 = system: A498
HCT-15 = system: HCT-15
HOP-18 = system: HOP-18
SNB-19 = system: SNB-19

C/C(CC(=O)Nc1ccc([N+](=O)[O-])cc1)=N/N=C(N)N
GI50 (RXF 631): > 100 µM (inactive) | GI50 (LXFL 529): 82 µM (inactive) | GI50 (OVCAR-3): > 100 µM (inactive) | GI50 (OVCAR-5): > 100 µM (inactive) | GI50 (HOP-62): > 100 µM (inactive) | GI50 (RXF 393): > 100 µM (inactive) | GI50 (HT-29): > 100 µM (inactive) | GI50 (IGROV-1): > 100 µM (inactive) | GI50 (TK-10): > 100 µM (inactive) | GI50 (ACHN): > 100 µM (inactive) | GI50 (DMS-273): > 100 µM (inactive) | GI50 (DLD-1): > 100 µM (inactive) | GI50 (EKVX): > 100 µM (inactive) | GI50 (MOLT-4): > 100 µM (inactive) | GI50 (NCI-H226): > 100 µM (inactive) | GI50 (COLO 205): > 100 µM (inactive) | GI50 (SF-295): > 100 µM (inactive) | GI50 (HOP-92): > 100 µM (inactive) | GI50 (SF-268): > 100 µM (inactive) | GI50 (NCI-H460): > 100 µM (inactive) | GI50 (HCT-116): > 100 µM (inactive) | GI50 (LOX IMVI): > 100 µM (inactive) | GI50 (A549): > 100 µM (inactive) | GI50 (Malme-3M): > 100 µM (inactive) | GI50 (K562): > 100 µM (inactive) | GI50 (SF-539): > 100 µM (inactive) | GI50 (OVCAR-8): > 100 µM (inactive) | GI50 (NCI-H23): > 100 µM (inactive) | GI50 (HL-60): > 100 µM (inactive) | GI50 (SK-OV-3): > 100 µM (inactive) | GI50 (SK-MEL-5): > 100 µM (inactive) | GI50 (UACC-62): > 100 µM (inactive) | GI50 (NCI-H522): > 100 µM (inactive) | GI50 (SNB-75): > 100 µM (inactive) | GI50 (HCC 2998): > 100 µM (inactive) | GI50 (SW-620): > 100 µM (inactive) | GI50 (SK-MEL-2): > 100 µM (inactive) | GI50 (M14): > 100 µM (inactive) | GI50 (DMS-114): > 100 µM (inactive) | GI50 (UO-31): > 100 µM (inactive) | GI50 (KM12): > 100 µM (inactive) | GI50 (SNB-78): > 100 µM (inactive) | GI50 (M19-MEL): > 100 µM (inactive) | GI50 (UACC-257): > 100 µM (inactive) | GI50 (U-251): > 100 µM (inactive) | GI50 (786-0): > 100 µM (inactive) | GI50 (RPMI-8226): > 10 µM (inactive) | GI50 (SK-MEL-28): > 100 µM (inactive) | GI50 (KM-20L2): > 100 µM (inactive) | GI50 (CCRF-CEM): > 100 µM (inactive) | GI50 (XF498): > 100 µM (inactive)

CCCCCCCCNC(=O)SCCCC
GI50 (RXF 631): 39.1 µM (inactive) | GI50 (LXFL 529): 38.5 µM (inactive) | GI50 (OVCAR-3): 49.5 µM (inactive) | GI50 (OVCAR-5): 37.2 µM (inactive) | GI50 (CAKI-1): 21.3 µM (inactive) | GI50 (RXF 393): 24.3 µM (inactive) | GI50 (HT-29): 20.8 µM (inactive) | GI50 (IGROV-1): 46.5 µM (inactive) | GI50 (TK-10): 29 µM (inactive) | GI50 (ACHN): 34.6 µM (inactive) | GI50 (DMS-273): 31.4 µM (inactive) | GI50 (DLD-1): 43.4 µM (inactive) | GI50 (SN12C): 37.8 µM (inactive) | GI50 (EKVX): 29.4 µM (inactive) | GI50 (MOLT-4): 22.5 µM (inactive) | GI50 (COLO 205): 45.2 µM (inactive) | GI50 (OVCAR-4): 36.7 µM (inactive) | GI50 (SF-295): 38 µM (inactive) | GI50 (HOP-92): 17.6 µM (inactive) | GI50 (SF-268): 34.9 µM (inactive) | GI50 (NCI-H460): 28.4 µM (inactive) | GI50 (A498): 45.5 µM (inactive) | GI50 (LOX IMVI): 19.9 µM (inactive) | GI50 (A549): 33.9 µM (inactive) | GI50 (Malme-3M): 23.1 µM (inactive) | GI50 (K562): 34.4 µM (inactive) | GI50 (SF-539): 38.6 µM (inactive) | GI50 (OVCAR-8): 33.8 µM (inactive) | GI50 (NCI-H23): 38.5 µM (inactive) | GI50 (HL-60): 18.8 µM (inactive) | GI50 (SK-OV-3): > 100 µM (inactive) | GI50 (SK-MEL-5): 21.3 µM (inactive) | GI50 (UACC-62): 43.2 µM (inactive) | GI50 (NCI-H522): 24.4 µM (inactive) | GI50 (HCT-15): 27.9 µM | GI50 (HOP-18): 31 µM (inactive) | GI50 (SNB-75): 26.1 µM (inactive) | GI50 (SW-620): 45.9 µM (inactive) | GI50 (SNB-19): 27.5 µM (inactive) | GI50 (SK-MEL-2): 20.9 µM (inactive) | GI50 (M14): 33.8 µM (inactive) | GI50 (UO-31): 26.5 µM (inactive) | GI50 (KM12): 55 µM (inactive) | GI50 (M19-MEL): 40.5 µM (inactive) | GI50 (U-251): 36.9 µM (inactive) | GI50 (786-0): 30.6 µM (inactive) | GI50 (RPMI-8226): 22.4 µM (inactive) | GI50 (SK-MEL-28): 38.2 µM (inactive) | GI50 (KM-20L2): 33.3 µM (inactive) | GI50 (CCRF-CEM): 23.4 µM (inactive) | GI50 (XF498): 13.8 µM (inactive)

Cc1ccc(SSCCCS(=O)O)cc1
GI50 (RXF 631): 20.4 µM (inactive) | GI50 (LXFL 529): 27.7 µM (inactive) | GI50 (OVCAR-3): 47 µM (inactive) | GI50 (OVCAR-5): 74.6 µM (inactive) | GI50 (HOP-62): 29.2 µM (inactive) | GI50 (CAKI-1): 38.7 µM (inactive) | GI50 (RXF 393): 18.8 µM (inactive) | GI50 (HT-29): 41.6 µM (inactive) | GI50 (IGROV-1): 7.93 µM (inactive) | GI50 (TK-10): 39.5 µM (inactive) | GI50 (ACHN): 37.4 µM (inactive) | GI50 (DMS-273): 24.5 µM (inactive) | GI50 (DLD-1): 45.8 µM (inactive) | GI50 (SN12C): 21.6 µM (inactive) | GI50 (EKVX): 33.1 µM (inactive) | GI50 (MOLT-4): 15.2 µM (inactive) | GI50 (COLO 205): 24 µM (inactive) | GI50 (OVCAR-4): 43.8 µM (inactive) | GI50 (SF-295): 32.8 µM (inactive) | GI50 (SF-268): 12.2 µM (inactive) | GI50 (NCI-H460): 63.1 µM (inactive) | GI50 (A498): 28.1 µM (inactive) | GI50 (HCT-116): 30.1 µM (inactive) | GI50 (LOX IMVI): 11.4 µM (inactive) | GI50 (A549): 31.9 µM (inactive) | GI50 (Malme-3M): > 100 µM (inactive) | GI50 (K562): 0.766 µM (active) | GI50 (SF-539): 20.7 µM (inactive) | GI50 (OVCAR-8): 21.6 µM (inactive) | GI50 (NCI-H23): 39 µM (inactive) | GI50 (HL-60): 0.435 µM (active) | GI50 (SK-OV-3): 49.2 µM (inactive) | GI50 (SK-MEL-5): 30.1 µM (inactive) | GI50 (UACC-62): 27.2 µM (inactive) | GI50 (NCI-H522): 18.1 µM (inactive) | GI50 (HCT-15): 29.2 µM | GI50 (HOP-18): > 100 µM (inactive) | GI50 (SNB-75): 21.8 µM (inactive) | GI50 (HCC 2998): 60 µM (inactive) | GI50 (SW-620): 34.2 µM (inactive) | GI50 (SNB-19): 49.7 µM (inactive) | GI50 (SK-MEL-2): 37.1 µM (inactive) | GI50 (M14): 38.6 µM (inactive) | GI50 (DMS-114): 15.9 µM (inactive) | GI50 (UO-31): 23.5 µM (inactive) | GI50 (KM12): 28.8 µM (inactive) | GI50 (M19-MEL): 31.8 µM (inactive) | GI50 (UACC-257): 50.2 µM (inactive) | GI50 (U-251): 17.4 µM (inactive) | GI50 (786-0): 40.4 µM (inactive) | GI50 (SK-MEL-28): 45.7 µM (inactive) | GI50 (KM-20L2): 31.7 µM (inactive) | GI50 (XF498): > 100 µM (inactive)
